We go through two compounds from PMC4332545 (ChemMedChem, 2009).

Assay [1] concerns 6 Hz (32 mA) corneal stimulation seizures in CF-1 mice. The experiment in a line: 6 Hz partial psychomotor seizure model. In kind it is in vivo. As to conditions: mouse 6 Hz, 30 min after dosing.
The test system of assay [2] is Frings mouse model of epilepsy. Particulars: in vivo; cited from earlier work.

On to `CC[C@H](C)[C@H](NC(=O)[C@H](Cc1ccc(O)cc1)NC(=O)[C@@H]1CCCN1C(=O)[C@H](CCCNC(=N)N)NC(=O)[C@@H](N)CCCNC(=N)N)C(=O)N[C@@H](CC(C)C)C(=O)O` [NT(8–13), H-RRPYIL-OH], for which the “Anticonvulsant Assay, icv ED50” value in assay [1] was 0.0011 nmol.

Regarding ZSEEGGSNATKKPYIL [Contulakin-G], the “Anticonvulsant activity in the Frings mouse model” value in assay [2] is given as “potent anticonvulsant activity”.
